From BigSolDB 2.1

Settings: 298.15 K

CC(=O)Oc1ccccc1C(=O)O
Settings	solubility (mole fraction)
in 1,4-dioxane	0.126
in 2-ethylhexanol	0.0303
in 2-methyl-1-butanol	0.0344
in 2-methyl-1-pentanol	0.0321
in 2-pentanol	0.0435
in 3,7-dimethyl-1-octanol	0.0304
in 4-methyl-2-pentanol	0.0393
in MTBE	0.0401
in THF	0.19
in dibutyl ether	0.00709
in diethyl ether	0.0353
in diisopropyl ether	0.0122
in ethyl acetate	0.0458
in isobutanol	0.0319
in isopentanol	0.0381
in isopropanol	0.0523
in methyl acetate	0.0529
in methyl butyrate	0.0297
in n-butanol	0.0462
in n-butyl acetate	0.0335
in n-decanol	0.0365
in n-heptanol	0.0389
in n-hexanol	0.0397
in n-octanol	0.0358
in n-pentanol	0.0397
in n-pentyl acetate	0.0268
in n-propanol	0.0498
in propylene carbonate	0.0313
in sec-butanol	0.0536
in tert-amyl alcohol	0.0818
in tert-butanol	0.0684
